Tests used:
[1] = Population PK (popPK) model of migalastat in adults (NONMEM, bootstrap); design: species or system human; conditions: for Typical V2/F, Estimate (% RSE): Fabry disease; for Typical V2/F, Estimate (% RSE) / Typical Q/F, Estimate (% RSE) / Typical V3/F, Estimate (% RSE): body weight ≥ 70 kg
Description: A population pharmacokinetics (popPK) model previously developed from healthy adult volunteers and adult patients with Fabry disease after oral migalastat administration. After pooling plasma concentration-time data from Phase I, II, and III studies of AT1001 administered orally in adults using a range of doses from 25 mg to 675 mg and regimens under fasting conditions. […] In contrast, other covariates such as sex, age, drug formulation (solution or suspension vs 25 mg capsule vs 150 mg capsule) were not statistically/clinically significant. Since renal function gradually increases from birth and reaches adult levels by the second year of life (Rubin 1949), there are no expected age-dependent changes in eGFR in the pediatric population 2 years and older than adults. Additionally, pediatric patients with Fabry disease usually have a normal renal function or may experience renal hyperfiltration (Hopkin 2008); therefore, weight-based dosing regimens, assuming that pediatrics have a normal renal function, were planned for the simulations in pediatric Fabry patients. NONMEM program was used to develop the population PK model of migalastat in adults using first-order conditional estimation with interaction (FOCE-I). Simulations were conducted using NONMEM to obtain plasma concentration-time; all graphical analyses were performed using R; noncompartmental analysis and pharmacokinetic parameters summaries were conducted using Phoenix WinNonlin. Bootstrapping and visual predictive checks (VPC)s were conducted using Perl-speaks-NONMEM (PsN) R packages of popED and mrgsolve were used in the optimal sampling strategy. […] The overall purpose of the model development was to come up with a model for pediatric extrapolation. […] Moreover, pediatric CLT/F values extrapolated from the non-renal model were higher than the overall CLT/F approach, resulting in higher pediatric doses for achieving equivalent exposures with adults which was a less conservative approach. Therefore, the overall CLT/F scaling approach is more conservative and was chosen for the final model, which is shown in Table 6. The estimated parameters from bootstrap (see Table 6) were nearly identical to those estimated from the original dataset. All parameters were estimated with adequate precision.

[2] = AT1001-020 Stage 1 pharmacokinetics (sparse plasma sampling, LC-MS/MS, popPK); type: in vivo, human
Description: Migalastat levels can be measured via methods known in the art. For example, if measuring migalastat from tissue samples, tissue aliquots may be homogenized (7 μL water per 1 mg tissue) using a homogenizer (e.g., FastPrep-24 from MP Biomedical, Irvine, CA). Microcentrifuge tubes containing 100 μl of the tissue homogenate or 50 μl of plasma may then be spiked with 500 ng/ml 13C d2-AT1001 HCl internal standard (manufactured by MDS Pharma Services). A 600 μl volume of 5 mM HCl in 95/5 MeOH:H2O can then be added and the tubes vortexed for 2 minutes, followed by centrifugation at 21000×g for 10 minutes at room temperature. […] After several wash steps and elution into a clean, 96-well plate, the extracts may be dried down under N2 and reconstituted with mobile phase A. Migalastat levels can then be determined by liquid chromatography-tandem mass spectroscopy (LC-MS/MS) (e.g., LC: Shimadzu; MS/MS: ABSciex API 5500 MS/MS). […] The following precursor ion->product ion transitions may be monitored: mass/charge (m/z) 164.1→m/z 80.1 for migalastat and m/z 167.1→m/z 83.1 for the internal standard. […] The ratio of the area under the curve for migalastat to that of the internal standard is then determined and final concentrations of migalastat in each sample calculated using the linear least squares fit equation applied to the calibration curve. […]
Plasma samples were analyzed using the LC-MS/MS method. […]

[3] = tested on: pediatric subjects with Fabry disease and amenable GLA variants; test: AT1001-020 Stage 1 safety in pediatric subjects (interim analysis)
Description: All safety analyses were performed using the safety population.
During Stage 1, urinalysis (albumin, protein, specific gravity, pH, and microscopy) was the only laboratory parameter collected at Month 1 and therefore, the only laboratory parameter assessed for the Interim Analysis.

[4] = Safety Population (N = 9), Stage 1

## OC[C@H]1NC[C@H](O)[C@@H](O)[C@H]1O [migalastat, (2R,3S,4R,5S)-2-(hydroxymethyl) piperdine-3,4,5-triol]
[1]; Bootstrap
  Ka (intercept), Estimate (% RSE): 0.256 (8.60%); h^−1
  Ka (slope), Estimate (% RSE): 0.282 (7.45%);
  Lag time, Estimate (% RSE): 0.176 (4.52%); h
  Typical V2/F, Estimate (% RSE): 69.7 (4.8%); L
  Typical Q/F, Estimate (% RSE): 1.01 (4.59%); L/h
  Typical V3/F, Estimate (% RSE): 27.5 (11.9%); L
[1]; NONMEM
  EGFR-related exponential index on CL/F, Estimate (% RSE): 0.922 (5.64%);
  Fractional Change in V2/F in subjects without Fabry disease (decrease in V2/F), Estimate (% RSE): −0.306 (12.8%);
  Fractional Change in total CL/F in subjects without Fabry disease (decrease in total CL/F), Estimate (% RSE): 0.150 (24.9%);
  Ka (intercept), Estimate (% RSE): 0.256 (9.41%); h^−1
  Ka (slope), Estimate (% RSE): 0.284 (9.12%);
  Lag time, Estimate (% RSE): 0.175 (4.65%); h
  Typical V2/F, Estimate (% RSE): 70.1 (5.29%); L
  Typical Q/F, Estimate (% RSE): 1.00 (5.17%); L/h
  Typical V3/F, Estimate (% RSE): 27.5 (11.7%); L
[1]; body weights between 50 and 170 kg
  Average difference in migalastat exposure with subject weight: < 2 fold
[1]; oral, regardless of the absorption model chosen
  Time within which the drug is considered fairly fully absorbed: 7 to 10 h
[2]; 123 mg capsule QOD
  Cmax levels observed in the pediatric patients versus adults in study AT1001-011: in line with the Cmax levels observed in adults patients
[2]; 123 mg capsule q.o.d., adolescent patients (n=9)
  Exposure in adults and adolescents weighing >45 kg (popPK): comparable
[3]; Month 1
  Changes in mean values from baseline for urinalysis parameters: no clinically meaningful changes
[3]; Safety Population (N = 9)
  Subjects with urine pH from normal at baseline to high at Month 1: Three
[3]; [4]
  Number of subjects discontinued due to TEAEs: 0 n (%)
  Number of subjects with AEs leading to death: 0 n (%)
  Number of subjects with TEAEs: 5 (55.6) n (%)
  Number of subjects with related TEAEs: 1 (11.1) n (%)
  Number of subjects with treatment-emergent SAEs: 0 n (%)
[3]; Safety Population (N = 9), Stage 1, 123 mg capsule QOD
  Number of TEAEs: 6 n
[3]; Safety Population, Stage 1
  Drug eruption, Number of Events: 1 (16.7) n (%)
  Drug eruption, Number of Subjects: 1 (11.1) n (%)
  Headache, Number of Events: 1 (16.7) n (%)
  Headache, Number of Subjects: 1 (11.1) n (%)
  Infections and infestations, Number of Events: 4 (66.7) n (%)
  Infections and infestations, Number of Subjects: 4 (44.4) n (%)
  Nervous system disorders, Number of Events: 1 (16.7) n (%)
  Nervous system disorders, Number of Subjects: 1 (11.1) n (%)
  Pharyngitis, Number of Events: 1 (16.7) n (%)
  Pharyngitis, Number of Subjects: 1 (11.1) n (%)
  Skin and subcutaneous tissue disorders, Number of Events: 1 (16.7) n (%)
  Skin and subcutaneous tissue disorders, Number of Subjects: 1 (11.1) n (%)
  Upper respiratory tract infection, Number of Events: 3 (50.0) n (%)
  Upper respiratory tract infection, Number of Subjects: 3 (33.3) n (%)
[3]; Stage 1
  Potentially clinically significant abnormalities in urinalysis parameters: no potentially clinically significant abnormalities
[3]; Stage 1, 123 mg, pediatric patients aged ≥12 to 16 years
  New safety findings: No new safety findings

From patent publication US20240293387A1, “Methods of Treating Fabry Disease in Pediatric Patients” (Amicus Therapeutics, Inc., priority 2021, published 2024)
